Source: US20200164005A1, “PHARMACEUTICAL COMPOSITIONS OF A BILE ACID DERIVATIVE AND MICROBIOME AND USES THEREOF” (Intercept Pharmaceuticals, Inc., priority 2017, published 2020)

Tests used:
[1] = tested on: bacterial strains found in the human small intestine; test: Inhibition of bacterial growth by bile acids, microbroth dilution, optical density at 630 nm; assay type: cell-based; conditions: aerobic or anaerobic
Experimental: The toxicity of several bile acids to various gut microbiome species was examined. Representative species were exposed to different bile acids at a range of concentrations under either aerobic or anaerobic condition, and the growth of the species at these concentrations was measured by determining the optical density of the culture.
Lactobacillus casei CP was purchased from Custom Probiotics Inc. (Glendale, Calif.) as L. casei Custom Probiotic Powder (strain confirmed by Sanger sequencing of the 16S gene). Pediococcus pentosaceus KE-99 was purchased from Probiohealth (Beverly Hills, Calif.) as KE-99 LACTO Tablet (strain confirmed by Sanger sequencing of the 16S gene). L. casei 393, Streptoccocus thermophilus LMD-9, Akkermansia muciniphila Muc, and Veillonella parvula Te3 were purchased from the American Type Culture Collection (ATCC, Manassas, Va.). Lactococcus lactis NZ9000 was purchased from BOCA Scientific (Boca Raton, Fla.). Escherichia coli Nissle was obtained from Dr. Mark Goulian (University of Pennsylvania, Philadelphia, Pa.).
L. casei, P. pentasaceus, and L. lactis were grown in de Man, Rogosa, and Sharpe (MRS) medium (Anaerobe Systems, Morgan Hill, Calif.); E. coli was grown in lysogeny broth (LB) medium (Fisher Scientific, USA); S. thermophilus and A. muciniphila were grown in brain heart infusion (BHI) medium (Fisher Scientific, USA and Anaerobe Systems, Morgan Hill, Calif.), and; V. parvula was grown in reinforced clostridial medium (Fisher Scientific, USA). Aerobic cultures were incubated at 37° C.; anaerobic cultures were incubated at 37° C. in an anaerobic glove box (Coy Laboratories, Grass Lake, Mich.).
Glycochenodeoxycholic, glycocholic, and taurocholic acids were purchased from Sigma Aldrich (St. Louis, Mo.). Obeticholic acid was provided by Intercept Pharmaceuticals, Inc. (New York, N.Y.).
Inhibition of bacterial growth by bile acids was determined by the microbroth dilution method. Plates were prepared with 100 uL of medium containing the appropriate concentrations of bile acid. Wells were inoculated with 1 uL of an overnight culture, covered, and incubated overnight (3 days for A. muciniphila and V. parvula, which are slow growing organisms). Growth was measured via optical density at 630 nm, and measurements were zeroed against wells containing the appropriate bile acid level with no bacteria. All tests were performed in triplicate. Data is expressed as the percent (%) reduction in growth, which was calculated against controls (i.e., no bile acids). The responses of representative species to different concentrations of bile acids are illustrated by the heat maps shown in FIGS. 53A-53D.

[2] = tested on: Lactococcus lactis, Streptococcus thermophilus, and Lactobacillus casei/paracasei; test: Minimal inhibitory concentrations (MIC) of bile acids and OCA, aerobic and anaerobic; assay type: cell-based; conditions: millimolar range; aerobic and anaerobic
Source text: FIGS. 58A-58B: Minimal inhibitory concentrations (MICs) of selected Gram-positive bacterial species in response treatment with two endogenous bile acids and OCA. […] N=3 per measurement. […] N=3 per measurement.
a (Begley et al., FEMS Microbiol Rev. 29, 625-651 (2005)), and conducted genomic analysis is consistent with the notion that specific Gram-positive taxa become proportionally more abundant during OCA administration due to enhanced proliferation. FXR-dependent inhibition of endogenous bile acid synthesis by OCA may reduce the growth inhibitory effects on Gram-positive bacterial species that are normally sensitive to bile acids. To determine if the three bacterial species with the greatest representation of pathways associated with OCA (FIG. 57A) are sensitive to bile acids, the species-specific minimal inhibitory concentrations (MIC) of the two most predominant bile acids in the human small intestine, glycochenodeoxycholic acid (GCDCA) and glycocholic acid (GCA) were determined (FIG. 58A). Since the environment of the small intestinal lumen may transition from an aerobic to anaerobic state along its length (He et al., Proceedings of the National Academy of Sciences of the United States of America, 96, 4586-4591 (1999)), MICs were determined under both aerobic and anaerobic conditions. […] Consistent with this notion, it has been shown that bile salt hydrolases (BSH), enzymes that are unique to bacteria resident in the mammalian gut where they can enhance bile acid tolerance (Begley et al., FEMS Microbiol Rev. 29, 625-651 (2005)), are missing from the genome of S. thermophilus, which is induced by OCA. It can be supported by showing that these species are sensitive to growth inhibition in vitro when exposed to physiologically-relevant concentrations of conjugated bile acids found in the small intestine. […] Since OCA is a bile acid analogue possibly capable of inhibiting bacterial growth, the MICs of OCA for the same bacterial species were determined (FIG. 58B). […] These findings support the notion that OCA treatment leads to the increased growth of bile acid sensitive bacterial taxa by suppressing endogenous bile acid synthesis.

Structure (SMILES) | growth inhibitory effects on various strains of gram positive bacteria [1] | growth of all three species at physiologically relevant concentrations [2]
CC(CCC(=O)NCC(=O)O)C1CCC2C3C(O)CC4CC(O)CCC4(C)C3CCC12C (centres unmarked) [GCDCA, glycochenodeoxycholic acid, reference compound] | differential growth inhibitory effects | significantly inhibited
C[C@H](CCC(=O)NCC(=O)O)[C@H]1CC[C@H]2[C@@H]3[C@H](O)C[C@@H]4C[C@H](O)CC[C@]4(C)[C@H]3C[C@H](O)[C@]12C [GCA, glycocholic acid, reference compound] | differential growth inhibitory effects | significantly inhibited
C[C@H](CCC(=O)NCCS(=O)(=O)O)[C@H]1CC[C@H]2[C@@H]3[C@H](O)C[C@@H]4C[C@H](O)CC[C@]4(C)[C@H]3C[C@H](O)[C@]12C [TCA, taurocholic acid] | differential growth inhibitory effects | 
